Source: ChEMBL document CHEMBL4411339, “Design, synthesis and antimycobacterial activity of less lipophilic Q203 derivatives containing alkaline fused ring moieties” (Bioorg Med Chem, 2019)
Converted amounts (≈) assume the structure as drawn.

Experiments:
[1] = Tmax in specific pathogen free ICR mouse at 25 mg/kg, po administered as single dose by HPLC analysis; format: ADME, organism-based; details: in vivo
hERG (KCNH2) = hERG (KCNH2) (Homo sapiens, UniProt Q12809); experiment: Inhibition of human ERG at 10 uM relative to control
[2] = Cmax in specific pathogen free ICR mouse at 25 mg/kg, po administered as single dose by HPLC analysis; format: ADME, organism-based; design: dose 25 mg/kg, route oral; details: in vivo
[3] = Cytotoxicity against African green monkey Vero cells assessed as reduction in cell viability after 72 hrs by MTT assay; format: cell-based; details: chlorocebus sabaeus
[4] = test system: Mycobacterium tuberculosis; experiment: Antimycobacterial activity against Mycobacterium tuberculosis H37Rv ATCC 27294 after 7 days by microplate alamar blue assay; format: functional; details: H37Rv ATCC 27294, 168 h
[5] = AUC (0 to infinity) in specific pathogen free ICR mouse at 25 mg/kg, po administered as single dose by HPLC analysis; format: ADME, organism-based; design: dose 25 mg/kg, time infinity, route oral; details: in vivo
[6] = Elimination half life in specific pathogen free ICR mouse at 25 mg/kg, po administered as single dose by HPLC analysis; format: ADME, organism-based; details: in vivo, read-out: beta t1/2 (converted)
[7] = Acute toxicity in specific pathogen free ICR mouse at 500 mg/kg, po administered as single dose measured up to 7 days; format: organism-based; details: in vivo, 168 h
[8] = Aqueous solubility of the compound in pH 2 0.01M HCl incubated under stirred condition for 12 hrs by UV-HPLC analysis; format: physicochemical

Sequence of hERG (KCNH2) (Q12809 whole entry): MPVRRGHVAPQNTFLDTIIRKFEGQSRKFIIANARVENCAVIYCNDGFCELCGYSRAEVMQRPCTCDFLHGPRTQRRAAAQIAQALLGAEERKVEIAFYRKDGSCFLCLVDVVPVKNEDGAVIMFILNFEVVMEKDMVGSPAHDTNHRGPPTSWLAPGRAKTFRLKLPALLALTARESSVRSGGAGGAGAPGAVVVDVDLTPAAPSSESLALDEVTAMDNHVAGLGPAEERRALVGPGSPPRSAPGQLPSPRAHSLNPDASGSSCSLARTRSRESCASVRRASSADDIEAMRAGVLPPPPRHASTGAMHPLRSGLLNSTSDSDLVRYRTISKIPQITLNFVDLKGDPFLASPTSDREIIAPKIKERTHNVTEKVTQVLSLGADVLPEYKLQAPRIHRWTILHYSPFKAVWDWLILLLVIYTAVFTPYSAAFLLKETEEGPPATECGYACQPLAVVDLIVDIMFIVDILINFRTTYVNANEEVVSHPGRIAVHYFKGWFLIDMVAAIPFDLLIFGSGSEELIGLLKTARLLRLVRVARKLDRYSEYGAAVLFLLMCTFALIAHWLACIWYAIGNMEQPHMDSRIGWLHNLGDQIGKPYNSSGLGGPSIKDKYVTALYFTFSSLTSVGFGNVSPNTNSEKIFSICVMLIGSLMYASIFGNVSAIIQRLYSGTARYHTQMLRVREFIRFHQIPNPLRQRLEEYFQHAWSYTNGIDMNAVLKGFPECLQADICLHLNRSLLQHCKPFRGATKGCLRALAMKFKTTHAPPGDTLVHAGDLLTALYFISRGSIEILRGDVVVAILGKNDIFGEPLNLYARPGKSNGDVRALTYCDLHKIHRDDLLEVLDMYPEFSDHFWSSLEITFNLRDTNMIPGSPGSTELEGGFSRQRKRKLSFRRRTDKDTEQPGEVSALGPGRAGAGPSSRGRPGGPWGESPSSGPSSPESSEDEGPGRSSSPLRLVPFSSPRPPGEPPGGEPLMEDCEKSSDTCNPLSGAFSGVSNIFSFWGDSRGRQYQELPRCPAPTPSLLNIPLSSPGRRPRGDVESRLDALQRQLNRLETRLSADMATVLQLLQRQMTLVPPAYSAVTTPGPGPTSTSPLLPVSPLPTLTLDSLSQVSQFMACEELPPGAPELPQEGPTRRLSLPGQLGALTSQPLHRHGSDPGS

Work on `CCc1nc2ccc(Cl)cn2c1C(=O)NCc1ccc2c(c1)CCN(CCc1ccc(C(F)(F)F)nc1)C2` yielded a Tmax [1] of 0.25 h, an inhibition at 10 µM (hERG (KCNH2)) of 44% and a Cmax [2] of 1630 ng/mL. For the same compound, the CC50 at 72 h [3] was > 64 µg/mL, the MIC [4] was 0.047 µM (≈ 0.0255 µg/mL) and the AUC(0-inf) [5] was 1480 ng·h/mL. The half-life [6] was 1.79 h and the Activity [7] was “Non-Toxic”.

In the case of `CCc1nc2cc(Cl)ccn2c1C(=O)NCc1ccc2c(c1)CCN(Cc1ccc(C)cc1)C2`, the MIC [4] was 0.27 µM (≈ 0.128 µg/mL).

`CCc1nc2ccc(Cl)cn2c1C(=O)NCc1ccc2c(c1)CCN(Cc1ccc(C(C)(C)C)cc1)C2` showed a Tmax [1] of 0.5 h, an inhibition at 10 µM (hERG (KCNH2)) of 31% and a Cmax [2] of 1080 ng/mL. For the same compound, the CC50 at 72 h [3] was 37 µg/mL (≈ 71.8 µM), the MIC [4] was < 0.035 µM and the AUC(0-inf) [5] was 4210 ng·h/mL. For the same compound, the half-life [6] was 9.35 h and the Activity [7] was “Non-Toxic”.

With `CCc1nc2cc(Cl)ccn2c1C(=O)NCc1ccc2c(c1)CCN(Cc1cc(F)cc(F)c1)C2` the Tmax [1] was 0.667 h, the inhibition at 10 µM (hERG (KCNH2)) was 48% and the Cmax [2] was 5380 ng/mL. For the same compound, the CC50 at 72 h [3] was 48 µg/mL (≈ 97 µM), the MIC [4] was < 0.035 µM and the AUC(0-inf) [5] was 24100 ng·h/mL. The half-life [6] was 9.06 h and the Activity [7] was “Non-Toxic”.

`CO[C@H]1/C=C/O[C@@]2(C)Oc3c(C)c(O)c4c(O)c(c(/C=N/N5CCN(C)CC5)c(O)c4c3C2=O)NC(=O)/C(C)=C\C=C\[C@H](C)[C@H](O)[C@@H](C)[C@@H](O)[C@@H](C)[C@H](OC(C)=O)[C@@H]1C` [RIFAMPIN] showed an MIC [4] of 0.12 µM (≈ 0.0988 µg/mL).

With `CCc1nc2ccc(Cl)cn2c1C(=O)NCc1ccc2c(c1)CCN(Cc1ccc(F)cc1)C2` the inhibition at 10 µM (hERG (KCNH2)) was 60%, the CC50 at 72 h [3] was > 64 µg/mL and the MIC [4] was < 0.035 µM.

`NNC(=O)c1ccncc1` [ISONIAZID] showed an MIC [4] of 0.27 µM (≈ 0.037 µg/mL).

For `CCc1nc2cc(Cl)ccn2c1C(=O)NCc1ccc2c(c1)CCN(Cc1ccc([N+](=O)[O-])o1)C2`, the inhibition at 10 µM (hERG (KCNH2)) was 71%, the CC50 at 72 h [3] was > 64 µg/mL and the MIC [4] was < 0.035 µM.

For `CCc1nc2cc(Cl)ccn2c1C(=O)NCc1ccc2c(c1)CCN(Cc1ccc(C(C)(C)C)cc1)C2`, the CC50 at 72 h [3] was 14 µg/mL (≈ 27.2 µM) and the MIC [4] was 0.12 µM (≈ 0.0618 µg/mL).

`CCc1nc2ccc(Cl)cn2c1C(=O)NCc1ccc2c(c1)CN(C(C)c1ccc(OC(F)(F)F)cc1)C2` (stereo not given) showed a Tmax [1] of 0.333 h, an inhibition at 10 µM (hERG (KCNH2)) of 50% and a Cmax [2] of 3990 ng/mL. For the same compound, the CC50 at 72 h [3] was > 64 µg/mL, the MIC [4] was < 0.035 µM and the AUC(0-inf) [5] was 7610 ng·h/mL. The half-life [6] was 9.08 h and the Activity [7] was “Non-Toxic”.

Compound `CCc1nc2ccc(Cl)cn2c1C(=O)NCc1ccc2c(c1)CCN(CCc1ccc(C(F)(F)F)cn1)C2` has a Tmax [1] of 0.25 h, an inhibition at 10 µM (hERG (KCNH2)) of 13% and a Cmax [2] of 22100 ng/mL. For the same compound, the CC50 at 72 h [3] was 48 µg/mL (≈ 88.6 µM), the solubility at 12 h [8] was 2100 µg/mL (≈ 3870 µM) and the MIC [4] was < 0.035 µM. For the same compound, the AUC(0-inf) [5] was 54900 ng·h/mL, the half-life [6] was 5.39 h and the Activity [7] was “Non-Toxic”.

For `CCc1nc2ccc(Cl)cn2c1C(=O)NCc1ccc2c(c1)CCN(Cc1cc(F)cc(F)c1)C2`, the CC50 at 72 h [3] was 14 µg/mL (≈ 28.3 µM) and the MIC [4] was < 0.035 µM.

In the case of `CCc1nc2ccc(Cl)cn2c1C(=O)NCc1ccc2c(c1)CCN(Cc1ccc(C(F)(F)F)cn1)C2`, the Tmax [1] was 0.583 h, the inhibition at 10 µM (hERG (KCNH2)) was 25% and the Cmax [2] was 8060 ng/mL. For the same compound, the CC50 at 72 h [3] was > 64 µg/mL, the MIC [4] was 0.053 µM (≈ 0.028 µg/mL) and the AUC(0-inf) [5] was 25600 ng·h/mL. For the same compound, the half-life [6] was 3.2 h and the Activity [7] was “Non-Toxic”.

Compound `CCc1nc2cc(Cl)ccn2c1C(=O)NCc1ccc2c(c1)CCN(Cc1ccc(F)cc1)C2` has an MIC [4] of 0.19 µM (≈ 0.0906 µg/mL).

With `CCc1nc2ccc(Cl)cn2c1C(=O)NCc1ccc2c(c1)CCN(Cc1ccc(Br)cc1)C2` the CC50 at 72 h [3] was 30 µg/mL (≈ 55.8 µM) and the MIC [4] was < 0.035 µM.

For `CCc1nc2cc(Cl)ccn2c1C(=O)NCc1ccc2c(c1)CCN(CCc1ccc(C(F)(F)F)cn1)C2`, the CC50 at 72 h [3] was 25 µg/mL (≈ 46.1 µM) and the MIC [4] was < 0.035 µM.

Work on `CCc1nc2ccc(Cl)cn2c1C(=O)NCc1ccc(N2CCC(c3ccc(OC(F)(F)F)cc3)CC2)cc1` [TELACEBEC] yielded a Tmax [1] of 2.67 h, an inhibition at 10 µM (hERG (KCNH2)) of 50% and a Cmax [2] of 3780 ng/mL. For the same compound, the CC50 at 72 h [3] was > 64 µg/mL, the solubility at 12 h [8] was 79 µg/mL (≈ 142 µM) and the MIC [4] was < 0.035 µM. For the same compound, the AUC(0-inf) [5] was 46600 ng·h/mL and the half-life [6] was 18.7 h.

For `CCc1nc2cc(Cl)ccn2c1C(=O)NCc1ccc2c(c1)CCN(Cc1ccc(OC)cc1)C2`, the inhibition at 10 µM (hERG (KCNH2)) was 64%, the CC50 at 72 h [3] was 32 µg/mL (≈ 65.4 µM) and the MIC [4] was < 0.035 µM.

Compound `O=c1nc(N2CCN(CC3CCCCC3)CC2)sc2c([N+](=O)[O-])cc(C(F)(F)F)cc12` [MACOZINONE] has an inhibition at 10 µM (hERG (KCNH2)) of 41%, a CC50 at 72 h [3] of 31 µg/mL (≈ 67.9 µM) and a solubility at 12 h [8] of 1130 µg/mL (≈ 2480 µM). The MIC [4] was < 0.035 µM and the AUC(0-inf) [5] was 1600 ng·h/mL.

`CCc1nc2ccc(Cl)cn2c1C(=O)NCc1ccc2c(c1)CCN(Cc1ccc(C(F)(F)F)nc1)C2` gave a CC50 at 72 h [3] of 7 µg/mL (≈ 13.3 µM) and an MIC [4] of 0.097 µM (≈ 0.0512 µg/mL).

For `CCc1nc2ccc(Cl)cn2c1C(=O)NCc1ccc2c(c1)CCN(Cc1ccc(C(F)(F)F)cc1)C2`, the Tmax [1] was 0.25 h, the inhibition at 10 µM (hERG (KCNH2)) was 50% and the Cmax [2] was 3000 ng/mL. For the same compound, the CC50 at 72 h [3] was > 64 µg/mL, the MIC [4] was 0.13 µM (≈ 0.0685 µg/mL) and the AUC(0-inf) [5] was 7800 ng·h/mL. The half-life [6] was 4.98 h and the Activity [7] was “Non-Toxic”.

For `CCc1nc2ccc(Cl)cn2c1C(=O)NCc1ccc2c(c1)CN(Cc1ccc(OC(F)(F)F)cc1)C2`, the Tmax [1] was 0.417 h, the inhibition at 10 µM (hERG (KCNH2)) was 50% and the Cmax [2] was 1310 ng/mL. For the same compound, the CC50 at 72 h [3] was > 64 µg/mL, the MIC [4] was 0.051 µM (≈ 0.027 µg/mL) and the AUC(0-inf) [5] was 3600 ng·h/mL. For the same compound, the half-life [6] was 5.13 h and the Activity [7] was “Non-Toxic”.

Compound `CCc1nc2cc(Cl)ccn2c1C(=O)NCc1ccc2c(c1)CCN(Cc1ccc(C(F)(F)F)cc1)C2` has an MIC [4] of 0.91 µM (≈ 0.48 µg/mL).

With `CCc1nc2ccc(Cl)cn2c1C(=O)NCc1ccc2c(c1)CCN(Cc1ccc([N+](=O)[O-])o1)C2` the MIC [4] was 0.25 µM (≈ 0.123 µg/mL).

For `CCc1nc2ccc(Cl)cn2c1C(=O)NCc1ccc2c(c1)CCN(Cc1ccc(OC)cc1)C2`, the CC50 at 72 h [3] was 2 µg/mL (≈ 4.09 µM) and the MIC [4] was < 0.035 µM.

In the case of `CCc1nc2ccc(Cl)cn2c1C(=O)NCc1ccc2c(c1)CCN(Cc1ccc(C)cc1)C2`, the inhibition at 10 µM (hERG (KCNH2)) was 54%, the CC50 at 72 h [3] was 51 µg/mL (≈ 108 µM) and the MIC [4] was < 0.035 µM.

`CCc1nc2cc(Cl)ccn2c1C(=O)NCc1ccc2c(c1)CCN(CCc1ccc(C(F)(F)F)nc1)C2` gave an MIC [4] of 0.19 µM (≈ 0.103 µg/mL).

Compound `CCc1nc2cc(Cl)ccn2c1C(=O)NCc1ccc2c(c1)CCN(Cc1ccc(Br)cc1)C2` has an MIC [4] of 0.31 µM (≈ 0.167 µg/mL).
